Measured values from patent US11446276B2, “Extreme low dose THC as a therapeutic and prophylactic agent for Alzheimer's disease” (University of South Florida, priority 2015, dated 2022).
Like-named read-outs stand apart in the source and are kept apart here.

What was measured:
[1] = test system: Aβ40 in N2a/AβPPswe cells; test: Aβ40 ELISA of N2a/AβPPswe cells treated with THC or caffeine; format: cell-based, human; conditions: THC 0.25-2500 nM or caffeine 0.625-10 μM
Aβ [2] = conditions: cited from earlier work
GSK-3β phosphorylation = conditions: melatonin 100 μM at the cellular level; cited from earlier work
Aβ aggregation [3] = conditions: PC12 cells study; cited from earlier work
[4] = test system: Aβ in neuroblastoma cells; conditions: cited from earlier work
Aβ aggregation [5] = conditions: neuronal cells; cited from earlier work
Aβ [6] = conditions: transgenic model of AD; cited from earlier work
AβPP = conditions: transgenic model of AD; cited from earlier work
Aβ [7] = conditions: frontal cortex; transgenic mice; cited from earlier work
Aβ in N2A cells = conditions: cited from earlier work
Aβ [8] = conditions: entorhinal cortex and hippocampus; transgenic mice model of AD; cited from earlier work
Aβ [9] = conditions: rats; cited from earlier work
Aβ [10] = conditions: rat model of sporadic AD; cited from earlier work
Aβ1-41 = conditions: transgenic mice; cited from earlier work
[11] = test system: mitochondrial complexes I and IV; conditions: in vivo; cited from earlier work
[12] = test system: hepatic mitochondrial DNA; conditions: mice; cited from earlier work
mitochondrial function = conditions: Alzheimer's mice; cited from earlier work
tau or neurofilament = conditions: induced by wortmannin, calyculin A, okadaic acid; N2a and SH-SY5Y cells; cited from earlier work
Aβ in N2a/AβPPswe cells = test: Sandwich ELISA of Aβ in N2a/AβPPswe cells treated with THC and CB1 inhibitor rimonabant; format: cell-based, human
Method: The mechanism of action was elucidated for THC's effect on Aβ levels using a sandwich ELISA assay. N2a/AβPPswe cells, as discussed in Example 1, were suspended to 2×10^5/mL, 3 mL plated into each well, and grown in DMEM with 10% fetal bovine serum, 100 U/mL penicillin, 100 μg/mL streptomycin, and 400 μg/mL G418 (Invitrogen), at 37° C. in the presence of 5% CO2. N2a/AβPPswe cells were subcultured using trypsin, and pipetted numerous times to ensure cells were separated into individual cells. Cells were counted, as provided in Example 1, and proper amount of cell medium and fresh medium was added into new flasks according to the ratio of dilution. Pipetting was performed 10 times to homogenize cells, and 3 mL of cells were seeded into medium into each 6 well plate. When one pipette was used up, the cells were mixed in the flask before using them for the next pipette. Compounds were suspended in DMSO.
12 hours after cells were plated, cells were treated with 25 nM of Δ9-THC (T4764-1ML Sigma Aldrich, Merck KGaA; Darmstadt, Germany), with the known inhibitor of the CB1 receptor, rimonabant, at 0 μM, 100 μM, 10 μM, 1 μM, or 0.1 μM rimonabant. Untreated N2a/AβPPswe cells were used as a control. Treatment was then washed out, i.e. the medium was then removed from the cultures and 3 mL of media containing the treatment compounds were added. Cells were collected at 12 hours afterwards, 48 hours afterwards, 60 hours afterwards, and 72 hours afterwards, and ELISA was conducted on the cells.
ELISA assay was performed on the cells using 50 μL of goat anti-PWT1-42 antibody solution, which was incubated overnight, followed by a 1-hour incubation with 0.1% I-block buffer. The tissue culture supernatant was diluted 1:10 with diluent buffer containing a protease inhibitor. Standards were prepared by serial dilution, as provided in Example 1. The plate was washed and 50 μL of sample or standard was added with triplication. 50 μL of both Biosource 40/42 (HS) (primary antibody) Aβ and a standard solution was added to each well and incubated for 3 hours followed by 5× wash with PBST. […]

[13] = test system: tau protein in PC12 cells; conditions: cited from earlier work

Cn1c(=O)c2c(ncn2C)n(C)c1=O [caffeine]
Aβ40 levels versus control ([1]; 6 hours, FIG. 1A): significant reduction | Aβ40 levels versus control ([1]; 24 hours, FIG. 1B): exponential drop | Aβ40 levels versus control ([1]; 48 hours, FIG. 1C): significant difference | Serum Aβ40 levels (Aβ [2]; mouse model): lower serum Aβ40 levels | Brain Aβ levels (Aβ [2]; transgenic mouse model): lowering brain Aβ levels

COc1ccc2[nH]cc(CCNC(C)=O)c2c1 [melatonin]
Decreased GSK-3β phosphorylation (GSK-3β phosphorylation): about 40% | Aβ aggregation (Aβ aggregation [3]): prevents Aβ aggregation | Aβ levels [4]: reduction of Aβ levels | Aβ aggregation (Aβ aggregation [5]): reduced Aβ aggregation | Aβ levels (Aβ [6]): reduction in Aβ levels | AβPP levels (AβPP): no change in AβPP levels | Aβ levels (Aβ [7]): reduces Aβ levels | Aβ levels (Aβ in N2A cells): reduced Aβ levels | Aggregation of Aβ (Aβ [8]): decreased the aggregation of Aβ | Hippocampal Aβ generation (Aβ [9]): reduced hippocampal Aβ generation | Aβ accumulation (Aβ [10]): attenuates Aβ accumulation | Aβ1-41 levels (Aβ1-41): decreased Aβ1-41 levels | Inhibition of mitochondrial complexes I and IV induced by ruthenium red [11]: prevented the inhibition of mitochondrial complexes I and IV | Ethanol-induced hepatic mitochondrial DNA depletion [12]: protects against ethanol-induced hepatic mitochondrial DNA depletion | Mitochondrial function (mitochondrial function): restores mitochondrial function | Tau or neurofilament hyperphosphorylation (tau or neurofilament): efficiently attenuates tau or neurofilament hyperphosphorylation

Cc1c(C(=O)NN2CCCCC2)nn(-c2ccc(Cl)cc2Cl)c1-c1ccc(Cl)cc1 [rimonabant]
Block of THC's Aβ lowering by CB1 antagonist (Aβ in N2a/AβPPswe cells; antagonist at 10^−4 M with 25 nM THC): partially blocked | Block of THC's Aβ lowering by CB1 antagonist (Aβ in N2a/AβPPswe cells; antagonist at 10^−7 M with 25 nM THC): inhibition function is lost

C=C(C)[C@@H]1CCC(C)=C[C@H]1c1c(O)cc(CCCCC)cc1O [Cannabidiol]
β-amyloid-induced tau protein hyperphosphorylation [13]: inhibits β-amyloid-induced tau protein hyperphosphorylation
